# Reference: PMC4950319, “Kinetic and structural characterization of amyloid‐β peptide hydrolysis by human angiotensin‐1‐converting enzyme” (The Febs Journal, 2016)
# Several values for one entry are separate records, joined by “and”; a condition that tells them apart may be missing. Equal entries are not always repeated. Entries after “also recorded” stand apart in the source; their conditions may differ.
# Assays:
# [1] = biological target: T1, Ndom (soluble form of the N‐domain of sACE) (Homo sapiens, UniProt P12821); experiment: Aβ(4–10)Y hydrolysis by Ndom, fluorogenic assay; type: biochemical
# T1 construct: made in house; host or cells: CHO cells
# From the text: (§1) Fluorogenic substrates designed around the established N‐terminal Asp7‐Ser8 cleavage site of the full‐length Aβ(1–42) were used to develop a higher throughput assay. There are two variations of the short fluorogenic peptides: Aβ(4–10)Q (Abz‐FRHDSG(Q)‐EDDnp) which has an N‐terminal Abz donor and a C‐terminal EDDnp quencher group attached to an additional Gln residue. The second peptide, Aβ(4–10)Y (Abz‐FRHDSG‐(NT)) has a different quencher molecule, NT, which substitutes for the naturally occurring Tyr residue.
# (§2) An alternative fluorogenic peptide, Abz‐FRHDSG‐(NT) (BIOPEP™ South Africa) was assayed, with 100 μL enzyme and 100 μL substrate (at a final enzyme concentration within 10% hydrolysis of total substrate; see Table 3) as above, in 96‐well plates. The samples were read at the 5 min time point on a Cary Eclipse spectrofluorimeter (Varian Inc.) at λex = 320 nm and λem = 420 nm. Kinetic constants, inner filter effect and standard curves were calculated as above.
# (§3) Statistical analysis of the data was determined by Student's t test. Differences with P < 0.05 were considered statistically significant. Fractional error was calculated for the k cat/K m ratio with the following equation: ΔZ=ZΔa/a^2+Δb/b^2 where Z represents the mean k cat/K m and ΔZ represents the fractional error. The Δa represents the SEM of the mean k cat (a). Similarly, Δb represents the SEM of the mean K m (b).
# [2] = biological target: T2, sACE (Homo sapiens, UniProt P12821); experiment: Interdomain cooperativity in hydrolysis of Aβ substrates; type: biochemical
# T2 construct: made in house; host or cells: CHO cells; purified from cell lysate
# Procedure: Mixtures were separated on a Poroshell 120 EC‐18 column with a 2.7 μm pore size. The reaction consists of 25 μL substrate incubated with 25 μL enzyme for 15 min at 37 °C and was stopped with the addition of 10 μL of 0.25% trifluoroacetic acid (TFA). The total reaction (60 μL) was cleared of contaminants on a spin column (GHP Nanosep® MF Centrifugal Device 0.45 μm pore size) and run on the HPLC. Kinetic parameters were determined through the fitting of initial rates to the Michaelis–Menten equation with […] PRISM software (v 4.01, GraphPad Prism®).
# The reaction was incubated for 15 min at 37 °C and stopped with the addition of 10 μL 0.25% TFA to make up a total volume of 60 μL. The reactions were performed in triplicate and 50 μL injections were analysed via HPLC (Agilent Technologies) across a gradient of 0.1% TFA and 2% ACN in water to 0.1% TFA, 95% ACN. A calibration curve was set up to convert the product peak area to picomoles product formed, through the complete hydrolysis of the substrate with the N‐domain. […] Kinetic constants were calculated using the Michaelis–Menten method using […] […]
# The assay is a modified form of the continuous assay 7 where the assay is set up on ice in triplicate in a 96‐well plate. The baseline fluorescence was at time zero and then the substrate was incubated at 37 °C and fluorescence read at the 45 min time point on a Cary Eclipse spectrofluorimeter (Varian Inc.) at λex = 320 nm and λem = 420 nm. Again, kinetic constants were calculated using the Michaelis–Menten method with […] […] The detected fluorescence was converted to picamoles product formed through the slope of a calibration curve of Abz‐Gly. […]
# as §2
# [3] = test system: ACE variants; experiment: Cleavage‐site analysis by MALDI‐TOF MS, kinetic assay conditions; type: biochemical, human; settings: MALDI‐TOF MS of products within kinetic assay conditions; Aβ(1–16): all ACE variants except Cdom; Aβ(4–10) peptides: Cdom and CC‐sACE not analysed
# Procedure: The mass spectrometry was analysed at the Centre for Proteomic and Genomic Research (Cape Town, South Africa). Briefly, the collected peptides were spotted onto a 10 mg·mL^−1 α‐cyano‐4‐hydroxycinnamic acid matrix (Fluka, USA) in 80% ACN, 0.2% TFA for a final concentration of 5 mg·mL^−1 matrix in 40% ACN, 0.1% TFA, 10 mM NH4H2PO4. Mass spectrometry was performed with a 4800 MALDI‐TOF/TOF (Applied Biosytems) with all spectra recorded in positive reflector mode. Spectra were generated with 400 laser shots/spectrum at a laser intensity of 3800 (arbitrary units) with a grid voltage of 16 kV.
# [4] = biological target: T3, Cdom (soluble form of the C‐domain of sACE) (Homo sapiens, UniProt P12821); experiment: Aβ(4–10)Y hydrolysis by Cdom, fluorogenic assay; type: biochemical; settings: fluorescence λex 320 nm, λem 420 nm, Hepes pH 7.5 buffer as for Aβ(4–10)Q, 5 min time point, enzyme 0.835 pmol, n = 3
# T3 construct: lacks the transmembrane region and unique 36 amino acid N terminus (and is therefore identical to the sACE C‐domain); made in house; host or cells: CHO cells
# From the text: as §1, §2, §3
# [5] = biological target: T2, sACE; experiment: Aβ(4–10)Y hydrolysis by sACE, fluorogenic assay; type: biochemical
# From the text: as §1, §2, §3
# [6] = biological target: T4, N‐sACE (Homo sapiens, UniProt P12821, H988K/H992K); experiment: Aβ(4–10)Y hydrolysis by N‐sACE, fluorogenic assay; type: biochemical; settings: fluorescence λex 320 nm, λem 420 nm, Hepes pH 7.5 buffer as for Aβ(4–10)Q, 5 min time point, enzyme 0.113 pmol, n = 3
# T4 construct: Both constructs have the complete signal, transmembrane and stalk region corresponding to full‐length sACE; made in house; host or cells: CHO cells; purified from cell lysate
# From the text: as §1, §2, §3
# [7] = biological target: T5, C‐sACE (Homo sapiens, UniProt P12821, H390K/H394K); experiment: Aβ(4–10)Y hydrolysis by C‐sACE, fluorogenic assay; type: biochemical
# T5 construct: Both constructs have the complete signal, transmembrane and stalk region corresponding to full‐length sACE; made in house; host or cells: CHO cells; purified from cell lysate
# From the text: as §1, §2, §3
# [8] = test system: CC‐sACE; experiment: Interdomain cooperativity of two C‐domains; type: biochemical, human; settings: catalytic ability per active site versus individual domains
# Procedure: as §2
# [9] = fluorescence λex 320 nm, λem 420 nm, Hepes pH 7.5 buffer as for Aβ(4–10)Q, 5 min time point, enzyme 0.228 pmol, mean ± SEM, n = 3
# [10] = mean ± fractional error of the ratio
# [11] = fluorescence λex 320 nm, λem 420 nm, Hepes pH 7.5 buffer as for Aβ(4–10)Q, 5 min time point, enzyme 0.031 pmol, mean ± SEM, n = 3
# [12] = fluorescence λex 320 nm, λem 420 nm, Hepes pH 7.5 buffer as for Aβ(4–10)Q, 5 min time point, enzyme 0.226 pmol, mean ± SEM, n = 3
# T1 sequence (P12821 30-658): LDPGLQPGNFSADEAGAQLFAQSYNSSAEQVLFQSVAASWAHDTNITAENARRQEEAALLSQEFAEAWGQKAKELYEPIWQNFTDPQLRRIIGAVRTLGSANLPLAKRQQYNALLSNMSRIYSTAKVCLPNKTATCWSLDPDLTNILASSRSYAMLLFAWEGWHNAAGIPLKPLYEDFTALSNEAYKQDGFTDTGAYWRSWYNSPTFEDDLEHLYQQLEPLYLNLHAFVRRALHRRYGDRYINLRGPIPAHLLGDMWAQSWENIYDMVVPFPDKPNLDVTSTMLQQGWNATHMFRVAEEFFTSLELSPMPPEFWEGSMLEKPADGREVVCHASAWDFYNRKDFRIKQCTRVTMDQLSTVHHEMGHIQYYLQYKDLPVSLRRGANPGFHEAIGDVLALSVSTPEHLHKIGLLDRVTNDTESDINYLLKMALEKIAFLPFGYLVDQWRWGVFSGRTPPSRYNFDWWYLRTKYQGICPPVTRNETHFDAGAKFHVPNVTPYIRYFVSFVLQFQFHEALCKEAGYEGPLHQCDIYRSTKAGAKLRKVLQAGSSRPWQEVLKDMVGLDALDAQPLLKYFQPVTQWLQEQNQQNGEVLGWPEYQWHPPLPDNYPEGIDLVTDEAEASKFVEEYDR
# T4 sequence (P12821 30-1306 H988K/H992K): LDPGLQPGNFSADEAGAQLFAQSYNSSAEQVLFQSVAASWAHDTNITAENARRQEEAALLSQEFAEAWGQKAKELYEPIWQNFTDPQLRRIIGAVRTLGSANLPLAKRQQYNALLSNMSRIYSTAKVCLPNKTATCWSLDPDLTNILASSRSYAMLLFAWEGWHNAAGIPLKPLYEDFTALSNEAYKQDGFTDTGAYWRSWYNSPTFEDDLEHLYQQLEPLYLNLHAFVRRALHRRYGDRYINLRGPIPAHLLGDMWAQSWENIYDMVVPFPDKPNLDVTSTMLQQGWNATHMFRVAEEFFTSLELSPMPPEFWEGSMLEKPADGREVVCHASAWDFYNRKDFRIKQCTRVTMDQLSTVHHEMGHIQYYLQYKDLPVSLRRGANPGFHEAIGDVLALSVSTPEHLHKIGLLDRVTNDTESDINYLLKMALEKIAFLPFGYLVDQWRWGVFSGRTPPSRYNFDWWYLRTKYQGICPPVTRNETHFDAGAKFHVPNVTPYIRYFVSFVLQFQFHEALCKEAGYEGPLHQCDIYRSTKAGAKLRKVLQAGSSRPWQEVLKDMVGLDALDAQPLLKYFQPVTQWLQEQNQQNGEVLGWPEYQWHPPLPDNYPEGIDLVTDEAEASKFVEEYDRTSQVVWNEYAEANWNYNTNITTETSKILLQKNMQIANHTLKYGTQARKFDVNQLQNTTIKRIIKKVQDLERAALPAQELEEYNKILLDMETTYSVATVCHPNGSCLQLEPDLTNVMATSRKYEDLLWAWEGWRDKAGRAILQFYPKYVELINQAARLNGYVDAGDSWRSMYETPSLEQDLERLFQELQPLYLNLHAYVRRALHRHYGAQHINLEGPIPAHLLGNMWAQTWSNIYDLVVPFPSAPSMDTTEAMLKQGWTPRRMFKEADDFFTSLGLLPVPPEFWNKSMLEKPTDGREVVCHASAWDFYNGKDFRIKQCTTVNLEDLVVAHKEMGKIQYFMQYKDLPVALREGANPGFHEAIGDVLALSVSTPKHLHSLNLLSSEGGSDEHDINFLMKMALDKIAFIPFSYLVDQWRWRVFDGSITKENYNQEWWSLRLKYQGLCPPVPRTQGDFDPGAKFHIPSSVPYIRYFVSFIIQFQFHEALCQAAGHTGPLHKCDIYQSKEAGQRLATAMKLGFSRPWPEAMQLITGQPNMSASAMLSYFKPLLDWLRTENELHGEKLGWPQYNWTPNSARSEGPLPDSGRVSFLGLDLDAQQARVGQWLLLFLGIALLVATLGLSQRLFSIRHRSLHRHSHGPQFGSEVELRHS
# T3 sequence (P12821 643-1222 limits assumed): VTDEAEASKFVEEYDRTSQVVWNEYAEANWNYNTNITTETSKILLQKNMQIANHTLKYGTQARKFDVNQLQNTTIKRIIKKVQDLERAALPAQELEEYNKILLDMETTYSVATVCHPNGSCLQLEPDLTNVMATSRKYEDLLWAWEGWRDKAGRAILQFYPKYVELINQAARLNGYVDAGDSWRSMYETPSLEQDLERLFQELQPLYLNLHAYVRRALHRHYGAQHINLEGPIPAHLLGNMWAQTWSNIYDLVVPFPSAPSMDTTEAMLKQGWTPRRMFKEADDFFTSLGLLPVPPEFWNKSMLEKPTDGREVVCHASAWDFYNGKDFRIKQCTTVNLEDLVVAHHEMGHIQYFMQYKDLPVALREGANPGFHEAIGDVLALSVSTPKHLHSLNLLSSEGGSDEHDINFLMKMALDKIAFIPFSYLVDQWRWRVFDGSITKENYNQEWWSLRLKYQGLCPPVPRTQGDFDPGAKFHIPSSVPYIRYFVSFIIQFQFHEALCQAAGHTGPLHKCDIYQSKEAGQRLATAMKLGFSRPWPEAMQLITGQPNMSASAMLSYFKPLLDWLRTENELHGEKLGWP
# T5 sequence (P12821 30-1306 H390K/H394K): as the sequence (P12821 30-1306 H988K/H992K) above, with H361K, H365K, K959H, K963H counted along it
# T2 sequence (P12821 30-1306): as the sequence (P12821 30-1306 H988K/H992K) above, with K959H, K963H counted along it
# Sequence of CC‐sACE (P12821 643-1222 limits assumed): as the sequence (P12821 643-1222 limits assumed) above
substance,measurement,setting,value
"Abz‐FRHDSG‐(NT) [Aβ(4–10)Y, fluorogenic Aβ(4–10) peptide with NT quencher substituting for Tyr]",catalytic efficiency by Ndom relative to Aβ(1–16),[1]; […] 10^5 versus […] 10^5 M^−1·s^−1,half the catalytic efficiency
same,K m,[1]; [9],21.20 ± 0.31 µM
same,V max,[1]; [9],4.62 ± 0.14
same,k cat,[1]; [9],20.30 ± 0.62 s⁻¹
same,k cat/K m,"[1]; fluorescence λex 320 nm, λem 420 nm, Hepes pH 7.5 buffer as for Aβ(4–10)Q, 5 min time point, enzyme 0.228 pmol, mean ± fractional error of the ratio, n = 3",9.57 M^−1·s^−1 × 10^5 and 9.57 ± 0.33 M^−1·s^−1 × 10^5
same,"interdomain cooperativity, full‐length constructs",[2]; examination of the N‐sACE and C‐sACE constructs,positive domain cooperativity; also recorded: a positive form of cooperativity
same,"interdomain cooperativity, truncated domains taken into account",[2]; truncated domains versus sACE,a negative effect on the activity of sACE
same,cleavage site (bond),[3],Asp7‐Ser8
same,K m,[4]; mean ± SEM,27.23 ± 9.52 µM
same,V max,[4]; mean ± SEM,4.45 ± 0.63
same,k cat,[4]; mean ± SEM,5.33 ± 0.76 s⁻¹
same,k cat/K m,[4]; [10],2.30 ± 0.87 M^−1·s^−1 × 10^5
same,K m,[5]; [11],12.60 ± 2.48 µM
same,V max,[5]; [11],0.90 ± 0.18
same,k cat,[5]; [11],28.70 ± 5.81 s⁻¹
same,k cat/K m,"[5]; fluorescence λex 320 nm, λem 420 nm, Hepes pH 7.5 buffer as for Aβ(4–10)Q, 5 min time point, enzyme 0.031 pmol, mean ± fractional error of the ratio, n = 3",22.67 ± 6.40 M^−1·s^−1 × 10^5
same,"catalytic efficiency of sACE, fold greater than Ndom","[5]; sACE versus Ndom, P < 0.05",2 fold
same,K m,[6]; mean ± SEM,8.56 ± 0.83 µM
same,V max,[6]; mean ± SEM,0.44 ± 0.01
same,k cat,[6]; mean ± SEM,3.87 ± 0.09 s⁻¹
same,k cat/K m,[6]; [10],4.61 ± 0.46 M^−1·s^−1 × 10^5
same,"C‐sACE K m, fold larger than its active N‐domain counterpart","[7]; C‐sACE versus active N‐domain counterpart, P < 0.05",2 fold
same,K m,[7]; [12],38.10 ± 0.10 µM
same,V max,[7]; [12],1.57 ± 0.09
same,k cat,[7]; [12],6.95 ± 1.39 s⁻¹
same,k cat/K m,"[7]; fluorescence λex 320 nm, λem 420 nm, Hepes pH 7.5 buffer as for Aβ(4–10)Q, 5 min time point, enzyme 0.226 pmol, mean ± fractional error of the ratio, n = 3",1.83 ± 0.18 M^−1·s^−1 × 10^5
same,cooperativity between the two C‐domains of CC‐sACE,[8],no cooperativity; also recorded: an additive effect between the two C‐domains
